Where “and” joins values, the source holds several entries; their conditions need not be identical. Identical values can stand only once.

We go through 14 compounds from patent US12162878B2 (HINOVA PHARMACEUTICALS INC., priority 2018, dated 2024).

Test [1] deals with BRD4(1,2) (Homo sapiens (Human), UniProt O60885). The experiment in a line: HTRF binding of compounds on BRD4 (D1+D2). Conditions: read-out: IC50 against BRD4(1,2). The text has this: (§1) Homogeneous time-resolved fluorescence technology (HTRF) was used to determine the binding effect of compounds on BRD4 (D1+D2) and BRDT (D1) proteins, as well as AlphaScreen method was used to detect the binding effect of compounds on BRD2 (D1+D2) and BRD3 (D1+D2) proteins.
(§2) The compounds were screened in vitro, and each compound was serially diluted to 10 concentrations. Four proteins BRD4 (D1+D2), BRDT (D1), BRD2 (D1+D2) and BRD3 (D1+D2) were chosen to determine the IC50 values of compounds (see Table 1).
(§3) 4. Compound treatment: The test compound was dissolved in dimethyl sulfoxide (DMSO), and the storage concentration was 10 mM.
(§4) 5. Steps for Homogeneous Time-Resolved Fluorescence Detection:
(§5) 1) According to the arrangement of the detection plate, all compounds were diluted in Echo plate.
(§6) The final dilution concentration of DMSO is 0.1%.
(§7) 2) The compound or DMSO was transferred to a 384-well detection plate with the Echo automatic sampler.
(§8) 3) Two-fold concentration of the mixture of protein and peptide was added to the detection plate.
(§9) 4) Two-fold concentration of mixed detection solution was added to the test plate, and shaken for 30 s.
(§10) 5) Incubating for 2 h at room temperature.
(§11) 6) Fluorescence signal was read on Envision multi-function microplate reader (excitation light wavelength being 340 nm, and emission light wavelength being 615 nm and 665 nm).
(§12) The experimental data were recorded in an Excel file, and equation (1) was used to obtain the inhibition rate. Inh%=(Max−Signal)/(Max−Min)*100 Equation (1):
(§13) The obtained data was recorded in GraphPad software, and equation (2) was used to provide the IC50 values. Y=Bottom+(Top−Bottom)/(1+10^((Log IC50−X)*Hill Slope)) Equation (2): […]
(§14) Y axis was the inhibition rate, and X axis was the compound concentration.

The target in test [2] is BRD3(1,2) (Homo sapiens (Human), UniProt Q15059). The experiment in a line: AlphaScreen binding of compounds on BRD3 (D1+D2). Conditions: read-out: IC50 against BRD3(1,2).
Description: as §1, §2, §3
(§15) 6. AlphaScreen Detection Procedures:
(§16) 1) Preparing One-Fold Concentration of Detection Buffer
(§17) One-fold concentration of detection buffer was prepared (Improved HEPES buffer)
(§18) 2) Gradient Dilution of Compounds
(§19) Echo automatic sampler was used to transfer the compound to the detection plate for gradient dilution, so that the final concentration of dimethyl sulfoxide was 0.1%.
(§20) 3) Preparation of Protein Solution
(§21) The protein was dissolved in one-fold concentration of detection buffer.
(§22) 4) Preparation of Substrate Solution
(§23) The peptide was dissolved in one-fold concentration of detection buffer to prepare the substrate solution.
(§24) 5) 5 μL protein solution was transferred to the detection plate, and one-fold concentration of detection buffer (5 μL) was placed in the negative control wells.
(§25) 6) The plate was incubated for 15 min at room temperature.
(§26) 7) 5 μL substrate solution was added to each well to start the reaction.
(§27) 8) The plate was incubated for additional 60 min at room temperature.
(§28) 9) Preparation of acceptor solution and donor solution in one-fold concentration of assay buffer Acceptor solution (15 μL) and donor solution (15 μL) were respectively added, and then incubated at room temperature for 60 min and protected against exposure to light.
(§29) 10) The endpoint was read in EnSpire and Alpha mode.
(§30) The experimental data were recorded in an Excel file and equation (1) was used to get the inhibition rate. Inh%=(Max−Signal)/(Max−Min)*100 Equation (1):
(§31) The obtained data were input into GraphPad software, and equation (2) was used to obtain the IC50 value. Y=Bottom+(Top−Bottom)/(1+10^((Log IC50−X)*Hill Slope)) Formula (2): […]
(§32) Wherein, Y axis was the inhibition rate, and the X axis was the compound concentration.

Test [3] deals with BRD2(1,2) (Homo sapiens (Human), UniProt P25440). The test is described as follows: AlphaScreen binding of compounds on BRD2 (D1+D2). Conditions: read-out: IC50 against BRD2(1,2).
Description: as §1, §2, §3, §15, §16, §17, §18, §19, §20, §21, §22, §23, §24, §25, §26, §27, §28, §29, §30, §31, §32

In test [4] the test system is CWR22RV1 cells. The test is described as follows: Inhibition of proliferation of CWR22RV1 cells (CCK-8). It is filed as cell-based, human. The conditions noted are these: 6 days. A digest of the protocol:
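Cells seeded at 1500/well, cultured overnight, then exposed to compounds in 3-fold dilutions (9 concentrations from 10 μM top final, 0.1% DMSO) for 6 days at 37 °C. Viability read by CCK-8 absorbance at 450 nm after 2.5 h; IC50 from dose-response inhibition fit.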

Test [5] deals with BRDT(D1) (Homo sapiens (Human), UniProt Q58F21). The test is described as follows: HTRF binding of compounds on BRDT (D1). The conditions noted are these: read-out: IC50 against BRDT(D1).
Description: as §1, §2, §3, §4, §5, §6, §7, §8, §9, §10, §11, §12, §13, §14

BRD3(1,2), sequence (Q15059 29-417): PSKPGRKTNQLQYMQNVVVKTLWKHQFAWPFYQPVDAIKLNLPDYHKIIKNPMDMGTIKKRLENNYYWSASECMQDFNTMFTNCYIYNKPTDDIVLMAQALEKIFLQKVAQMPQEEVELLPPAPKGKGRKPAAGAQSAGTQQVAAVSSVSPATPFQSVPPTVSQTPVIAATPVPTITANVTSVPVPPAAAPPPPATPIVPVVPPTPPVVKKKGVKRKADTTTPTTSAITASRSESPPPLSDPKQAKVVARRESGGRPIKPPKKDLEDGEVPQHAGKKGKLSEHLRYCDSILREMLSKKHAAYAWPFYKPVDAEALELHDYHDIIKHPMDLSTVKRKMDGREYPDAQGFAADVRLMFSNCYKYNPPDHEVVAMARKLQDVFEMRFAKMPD
BRD2(1,2), sequence (P25440 65-459): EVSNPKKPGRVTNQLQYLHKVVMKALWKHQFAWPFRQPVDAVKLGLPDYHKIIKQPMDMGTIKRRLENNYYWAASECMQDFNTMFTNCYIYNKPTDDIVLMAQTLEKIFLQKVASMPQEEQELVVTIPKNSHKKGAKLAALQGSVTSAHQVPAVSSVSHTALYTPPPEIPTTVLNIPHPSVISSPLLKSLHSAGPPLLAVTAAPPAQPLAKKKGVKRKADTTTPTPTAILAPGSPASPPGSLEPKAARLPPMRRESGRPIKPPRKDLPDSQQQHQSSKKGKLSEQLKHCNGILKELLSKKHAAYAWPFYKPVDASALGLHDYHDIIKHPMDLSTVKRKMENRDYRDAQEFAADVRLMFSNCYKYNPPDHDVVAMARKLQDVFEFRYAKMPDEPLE

For the compound `[2H]C([2H])([2H])n1cc(-c2cc(S(C)(=O)=O)ccc2N2CCC3(CC2)CC3)c2cc[nH]c2c1=O` [Compound 56, 6-trideuteromethyl-4-(5(methylsulfonyl)-2-(6-aza-spiro[2.5]octan-6-yl)phenyl)-1H-pyrrolo[2,3-c]pyridin-7(6H)-one], the IC50 in test [1] is 7.1 nM; in test [2], 4.3 nM; in test [3], 1.1 nM; in test [4] (Homo sapiens, CWR22Rv1, 144 h), 3 nM; in test [5] it was 21 nM.
For the compound `[2H]C([2H])([2H])NS(=O)(=O)c1cnc(N2CCC3(CC2)CC3(F)F)c(-c2cn(C([2H])([2H])[2H])c(=O)c3[nH]ccc23)c1` [Compound 213, 6-(1,1-difluoro-6-aza-spiro[2.5]octan-6-yl)-N-trideuteromethyl-5-(6-trideuteromethyl-7-oxo-6,7-dihydro-1H-pyrrolo[2,3-c]pyridin-4-yl) pyridin-3-sulfonamide], the IC50 in test [1] came out at 4.1 nM; in test [2], 4.4 nM; in test [3] it was 1.6 nM; in test [5], 15 nM.
With `[2H]C([2H])([2H])n1cc(-c2cc(S(=O)(=O)CC)cnc2N2CCC3(CC2)CC3(F)F)c2cc[nH]c2c1=O` [Compound 215, 4-(2-(1,1-difluoro-6-aza-spiro[2.5]octan-6-yl)-5-(ethylsulfonyl)pyridin-3-yl)-6-trideuteromethyl-1H-pyrrolo[2,3-c]pyridin-7(6H)-one], the IC50 in test [1] was 5.3 nM; in test [2] it was 5 nM; in test [3], 2.9 nM; in test [5] it was 16 nM.
`[2H]C([2H])([2H])n1cc(-c2cc(S(=O)(=O)N(C)C)ccc2N2CCC3(CC2)CC3(F)F)c2cc[nH]c2c1=O` [Compound 204, 4-(1,1-difluoro-6-aza-spiro[2.5]octan-6-yl)-N,N-dimethyl-3-(6-trideuteromethyl-7-oxo-6,7-dihydro-1H-pyrrolo[2,3-c]pyridin-4-yl)benzenesulfonamide]: the IC50 amounted to 10 nM in test [1]; 7.4 nM in test [2]; 6.5 nM in test [3]; 0.7 nM in test [4] (Homo sapiens, CWR22Rv1, 144 h); 19 nM in test [5].
Regarding `[2H]C([2H])([2H])n1cc(-c2cc(S(=O)(=O)N3C[C@H](O)C[C@H]3C(=O)O)ccc2N2CCC3(CC2)CC3(F)F)c2cc[nH]c2c1=O` [Compound 252, (2S,4R)-1-((4-(1,1-difluoro-6-aza-spiro[2.5]octan-6-yl)-3-(6-trideuteromethyl-7-oxo-6,7-dihydro-1H-pyrrolo[2,3-c]pyridin-4-yl)phenyl)sulfonyl)-4-hydroxylpyrrolidin-2-carboxylic acid], the half-inhibitory concentration (IC50) in test [1] is 680 nM; in test [2], 240 nM; in test [3], 160 nM; in test [5], 830 nM.
For `[2H]C([2H])([2H])n1cc(-c2cc(S(=O)(=O)C(C)(C)C(=O)O)ccc2N2CCC3(CC2)CC3(F)F)c2cc[nH]c2c1=O` [Compound 239, 2-((4-(1,1-difluoro-6-aza-spiro[2.5]octan-6-yl)-3-(6-trideuteromethyl-7-oxo-6,7-dihydro-1H-pyrrolo[2,3-c]pyridin-4-yl)phenyl)sulfonyl)-2-methylpropionic acid], the 50% inhibitory concentration (IC50) in test [1] turned out to be 14 nM; in test [2], 5.2 nM; in test [3], 3 nM; in test [4] (Homo sapiens, CWR22Rv1, 144 h) it was 7.8 nM; in test [5] it was 18 nM.
Consider `[2H]C([2H])([2H])n1cc(-c2cc(S(=O)(=O)NC)cnc2N2CCC3(CC2)CC3(F)F)c2cc[nH]c2c1=O` [Compound 212, 6-(1,1-difluoro-6-aza-spiro[2.5]octan-6-yl)-N-methyl-5-(6-trideuteromethyl-7-oxo-6,7-dihydro-1H-pyrrolo[2,3-c]pyridin-4-yl)pyridin-3-sulfonamide], for which the IC50 in test [1] amounted to 4.3 nM; in test [2], 4.6 nM; in test [3], 1.7 nM; in test [5] it was 13 nM.
Take `[2H]C([2H])([2H])n1cc(-c2cc(S(=O)(=O)N3CC[C@H](O)C3)ccc2N2CCC3(CC2)CC3(F)F)c2cc[nH]c2c1=O` [Compound 241, (S)-4-(2-(1,1-difluoro-6-aza-spiro[2.5]octan-6-yl)-5-((3-hydroxylpyrrolidin-1-yl)sulfonyl)phenyl)-6-trideuteromethyl-1H-pyrrolo[2,3-c]pyridin-7(6H)-one]: the IC50 in test [1] worked out at 5.8 nM; in test [2], 4.1 nM; in test [3], 1.2 nM; in test [4] (Homo sapiens, CWR22Rv1, 144 h), 1.7 nM; in test [5], 17 nM.
`[2H]C([2H])([2H])n1cc(-c2cc(S(N)(=O)=O)ccc2N2CCC3(CC2)CC3(F)F)c2cc[nH]c2c1=O` [Compound 251, 4-(1,1-difluoro-6-aza-spiro[2.5]octan-6-yl)-3-(6-trideuteromethyl-7-oxo-6,7-dihydro-1H-pyrrolo[2,3-c]pyridin-4-yl)benzenesulfonamide]: the IC50 came out at 3.4 nM in test [1], 3.9 nM in test [2], 1.2 nM in test [3] and 13 nM in test [5].
For the compound `[2H]C([2H])([2H])n1cc(-c2cc(S(=O)(=O)N3CC[C@H](O)C3)cnc2N2CCC3(CC2)CC3)c2cc[nH]c2c1=O` [Compound 243], the IC50 in test [1] was 8.9 nM; in test [2] it was 5.3 nM; in test [3], 1.4 nM; in test [4] (Homo sapiens, CWR22Rv1, 144 h), 1.3 nM; in test [5] it was 19 nM.
As to `CCS(=O)(=O)Nc1ccc(N2CCC3(CC2)CC3(F)F)c(-c2cn(C)c(=O)c3[nH]ccc23)c1` [Compound 193, N-(4-(1,1-difluoro-6-aza-spiro[2.5]octan-6-yl)-3-(6-methyl-7-oxo-6,7-dihydro-1H-pyrrolo[2,3-c]pyridin-4-yl)phenyl)ethanesulfonamide], the concentration for half-maximal inhibition (IC50) in test [1] worked out at 14 nM; in test [2], 5.8 nM; in test [3], 2.7 nM; in test [4] (Homo sapiens, CWR22Rv1, 144 h), 4 nM; in test [5] it was 32 nM.
Turning to `[2H]C([2H])([2H])n1cc(-c2cc(S(N)(=O)=O)c(F)cc2N2CCC3(CC2)CC3(F)F)c2cc[nH]c2c1=O` [Compound 217, 4-(1,1-difluoro-6-aza-spiro[2.5]octan-6-yl)-2-fluoro-5-(6-trideuteromethyl-7-oxo-6,7-dihydro-1H-pyrrolo[2,3-c]pyridin-4-yl)benzenesulfonamide], the IC50 in test [1] was 6.2 nM and 4.9 nM; in test [2], 4.9 nM and 4.5 nM; in test [3], 1.4 nM and 1.5 nM; in test [5], 20 nM and 19 nM.
Regarding `[2H]C([2H])([2H])n1cc(-c2cc(S(=O)(=O)N3CC[C@@H](O)C3)ccc2N2CCC3(CC2)CC3(F)F)c2cc[nH]c2c1=O` [Compound 240, (R)-4-(2-(1,1-difluoro-6-aza-spiro[2.5]octan-6-yl)-5-((3-hydroxylpyrrolidin-1-yl)sulfonyl)phenyl)-6-trideuteromethyl-1H-pyrrolo[2,3-c]pyridin-7(6H)-one], the IC50 in test [1] turned out to be 6.4 nM; in test [2] it was 4.3 nM; in test [3] it was 1.2 nM; in test [4] (Homo sapiens, CWR22Rv1, 144 h), 4.8 nM; in test [5], 21 nM.
With `[2H]C([2H])([2H])n1cc(-c2cc(S(=O)(=O)CC)ccc2N2CCC3(CC2)CC3(F)F)c2cc[nH]c2c1=O` [Compound 250, 4-(2-(1,1-difluoro-6-aza-spiro[2.5]octan-6-yl)-5-(ethylsulfonyl)phenyl)-6-trideuteromethyl-1H-pyrrolo[2,3-c]pyridin-7(6H)-one], the IC50 in test [1] was found to be 4.3 nM; in test [2], 4.1 nM; in test [3], 1.5 nM; in test [4] it was 120 nM; in test [5] it was 15 nM.
